Results: PMC11672299, “Conjugation of Polycationic Peptides Extends the Efficacy Spectrum of β‐Lactam Antibiotics” (Advanced Science, 2024)
Read-outs that look alike come from different tables or passages of the source.

How the values were obtained:
[1] = target: T1, PBP4 (Bacillus subtilis, UniProt P40750); assay: Gel‐based PBP affinity assay (Bocillin FL competition); format: binding; settings: B. subtilis membrane fractions, competition with Bocillin FL penicillin
T1 construct: endogenous in cells; host or cells: B. subtilis DSM 10, extracted membrane protein fraction
T1 sequence (P40750 22-624): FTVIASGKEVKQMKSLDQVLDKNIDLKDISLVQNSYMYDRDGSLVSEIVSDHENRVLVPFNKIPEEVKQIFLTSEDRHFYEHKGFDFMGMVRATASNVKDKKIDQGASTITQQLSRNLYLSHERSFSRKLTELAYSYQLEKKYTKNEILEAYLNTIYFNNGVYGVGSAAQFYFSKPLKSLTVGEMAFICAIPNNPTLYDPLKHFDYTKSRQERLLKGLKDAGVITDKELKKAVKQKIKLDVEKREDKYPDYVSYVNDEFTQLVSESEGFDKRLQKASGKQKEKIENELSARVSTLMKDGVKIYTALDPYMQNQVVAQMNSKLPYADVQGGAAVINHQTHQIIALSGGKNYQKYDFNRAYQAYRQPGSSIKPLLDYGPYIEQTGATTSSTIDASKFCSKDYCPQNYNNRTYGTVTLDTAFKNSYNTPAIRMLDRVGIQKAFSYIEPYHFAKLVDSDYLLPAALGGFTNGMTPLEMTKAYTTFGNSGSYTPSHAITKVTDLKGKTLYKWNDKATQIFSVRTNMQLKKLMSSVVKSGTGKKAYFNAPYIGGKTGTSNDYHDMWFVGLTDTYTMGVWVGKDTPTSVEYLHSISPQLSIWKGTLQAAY
Protocol: (§1) B. subtilis DSM 10 and E. faecalis ATCC 51 299 (equal to DSM 12 956) membrane protein fractions were extracted according to the protocol of Dean et al. with minor modifications.^[ [34] ^] From a growing overnight bacterial culture, 3 L of LB (Luria‐Bertani) medium or TSB (tryptic soy broth) were inoculated with B. subtilis DSM 10 and E. faecalis ATCC 51 299, respectively, to obtain an OD600 = 0.3. The cultures were grown to an OD600 = 0.6–0.8 while shaking at 37 °C and cells were harvested by centrifugation at 4000 g for 30 min at 4 °C. The resulting pellet was washed twice with pre‐cooled PBS and resuspended in 30 mL of ice‐cooled PBS. The suspension was sonicated on ice (10 cycles of 30 s at 50% power for B. subtilis; 12 cycles of 30 s at 80% power for E. faecalis; 2 min intervals between cycles) using an Omni Ruptor 4000 ultrasonic homogenizer (Omni International, Kennesaw, GA, USA). Afterwards, the suspension was centrifuged at 7000 g for 10 min at 4 °C. The clear supernatant was transferred into a 50 mL polypropylene tube and centrifuged in a Beckman Coulter centrifuge equipped with a JA‐20 fixed‐angle rotor (Beckman Coulter, Krefeld, Germany) at 50 000 g for 1 h at 4 °C. The resulting pellet was washed with ice‐cold PBS and centrifuged a second time. The pellet was resuspended in 2 mL PBS and aliquots were stored at −80 °C. The protein content was determined using Bradford reagent (VWR International, Darmstadt, Germany) and Pierce BCA (bicinchoninic acid) protein assay kits (Thermo Fisher Scientific, Waltham, MA, USA) for membrane fractions of B. subtilis and E. faecalis, respectively.
(§2) Each dilution was combined with B. subtilis (30 µg) or E. faecalis (15 µg) extracted membrane fractions. As reference samples, membrane fractions incubated with only PBS were prepared. Reaction mixtures were incubated for 20 min at 37 °C while shaking at 400 rpm. Next, Bocillin FL penicillin (Thermo Fisher Scientific, Waltham, MA, USA) was added to obtain a final concentration of 20 µM in the mixture. Samples were incubated for 30 min at 37 °C while shaking at 400 rpm. To denature the samples, 4× Laemmli sample buffer (Bio‐Rad Laboratories, Feldkirchen, Germany) was added, and the samples incubated for 10 min at 70 °C. Afterwards, the samples were centrifuged for 5 min at 13 000 rpm. Samples were separated by SDS‐PAGE using a 10% Tris‐glycine gel for 100 min at 180 V. The bands were visualized using a Typhoon FLA 9500 imager (GE Healthcare, Chicago, IL, USA) with excitation at 473 nm. The gel images were analyzed using ImageJ software. Brightness and contrast were adjusted to improve the signal‐to‐noise ratio and the background signal was subtracted over the whole image. Next, integrated density values of the gel bands were measured and Bocillin FL penicillin labeling of each PBP in antibiotic‐treated samples were set in proportion to the reference sample. IC50 values were calculated with GraphPad Prism software (version 8.0.1) using inhibitor versus normalized response variable slope and least‐squares fit. […] The mean was calculated using the IC50 values of at least two independent assays for each antibiotic.

[2] = target: T2, PBP2B (Bacillus subtilis, UniProt Q07868); assay: as above; format: binding; settings: B. subtilis membrane fractions, competition with Bocillin FL penicillin
T2 construct: endogenous in cells; host or cells: B. subtilis DSM 10, extracted membrane protein fraction
T2 sequence (Q07868 whole entry): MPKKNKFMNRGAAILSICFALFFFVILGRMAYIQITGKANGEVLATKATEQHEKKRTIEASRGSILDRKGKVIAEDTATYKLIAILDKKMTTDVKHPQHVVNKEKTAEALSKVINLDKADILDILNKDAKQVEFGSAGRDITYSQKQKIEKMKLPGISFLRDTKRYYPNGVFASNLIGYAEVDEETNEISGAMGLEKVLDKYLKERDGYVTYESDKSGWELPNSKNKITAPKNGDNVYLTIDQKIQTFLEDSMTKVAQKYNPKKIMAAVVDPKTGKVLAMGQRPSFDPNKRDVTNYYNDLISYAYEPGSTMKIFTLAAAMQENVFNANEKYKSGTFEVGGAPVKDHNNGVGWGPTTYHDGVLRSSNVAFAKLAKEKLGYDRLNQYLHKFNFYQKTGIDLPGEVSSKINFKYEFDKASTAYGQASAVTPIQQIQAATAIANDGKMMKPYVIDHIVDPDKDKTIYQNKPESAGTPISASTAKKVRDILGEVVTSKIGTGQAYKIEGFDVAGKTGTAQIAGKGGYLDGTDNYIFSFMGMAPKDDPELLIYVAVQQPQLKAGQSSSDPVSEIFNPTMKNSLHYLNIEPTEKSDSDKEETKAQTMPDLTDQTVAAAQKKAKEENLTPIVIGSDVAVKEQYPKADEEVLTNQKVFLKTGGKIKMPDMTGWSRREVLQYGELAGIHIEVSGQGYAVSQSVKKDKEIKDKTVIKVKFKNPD
Protocol: as §1, §2

[3] = target: PBP1A/B (Bacillus subtilis, UniProt P39793); assay: as above; format: binding; settings: B. subtilis membrane fractions, competition with Bocillin FL penicillin
Chain of PBP1A/B (P39793 1-662): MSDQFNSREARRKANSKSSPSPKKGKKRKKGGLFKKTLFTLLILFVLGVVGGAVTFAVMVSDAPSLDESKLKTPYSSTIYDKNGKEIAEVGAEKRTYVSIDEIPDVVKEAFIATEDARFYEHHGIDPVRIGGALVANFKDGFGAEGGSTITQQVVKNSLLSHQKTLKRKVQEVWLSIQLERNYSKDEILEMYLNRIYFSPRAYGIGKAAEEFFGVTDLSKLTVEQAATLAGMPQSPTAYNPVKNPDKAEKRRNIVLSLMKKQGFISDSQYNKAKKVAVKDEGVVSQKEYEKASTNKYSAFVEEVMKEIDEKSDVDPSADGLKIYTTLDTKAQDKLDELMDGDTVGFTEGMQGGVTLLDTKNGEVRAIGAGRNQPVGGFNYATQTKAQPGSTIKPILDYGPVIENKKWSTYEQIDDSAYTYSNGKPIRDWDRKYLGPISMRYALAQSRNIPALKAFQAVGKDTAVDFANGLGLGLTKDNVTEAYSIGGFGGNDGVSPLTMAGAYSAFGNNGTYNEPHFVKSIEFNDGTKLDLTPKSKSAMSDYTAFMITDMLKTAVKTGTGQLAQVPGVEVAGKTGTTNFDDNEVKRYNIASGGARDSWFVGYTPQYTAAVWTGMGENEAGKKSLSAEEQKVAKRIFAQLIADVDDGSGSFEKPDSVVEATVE
Protocol: as §1, §2

[4] = test system: S. aureus ATCC 25923 (MSSA); assay: microbe, parasite or virus in culture; format: cell-based
In short: (§3)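 Twofold serial dilutions in cation-adjusted MHB II were inoculated at 5 × 10^5 CFU mL^−1 and incubated 20 h at 37 ± 1 °C. The MIC was the lowest concentration preventing visible growth. Combinations used fixed clavulanic acid (2 mg L^−1) or avibactam (4 mg L^−1).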

[5] = test system: S. saprophyticus ATCC 15305; assay: microbe, parasite or virus in culture; format: cell-based
In short: as §3

[6] = test system: E. casseliflavus ATCC 700327; assay: microbe, parasite or virus in culture; format: cell-based
In short: as §3

[7] = test system: S. aureus NCTC 10442 (MRSA); assay: microbe, parasite or virus in culture; format: cell-based
In short: as §3

[8] = test system: E. coli Tü20‐025 (clinical isolate); assay: microbe, parasite or virus in culture; format: cell-based
In short: as §3

[9] = test system: E. faecalis ATCC 29212; assay: microbe, parasite or virus in culture; format: cell-based
In short: as §3

[10] = test system: K. pneumoniae Tü20‐036 (clinical isolate); assay: microbe, parasite or virus in culture; format: cell-based
In short: as §3

[11] = test system: B. subtilis DSM 10; assay: microbe, parasite or virus in culture; format: cell-based
In short: as §3

For `CC(C)(O/N=C(\C(=O)N[C@@H]1C(=O)N2C(C(=O)[O-])=C(C[n+]3ccccc3)CS[C@H]12)c1csc(N)n1)C(=O)O` [CTZ, ceftazidime, reference compound], the “binding to PBP4” value [1] was “strong binding”, the “binding to PBP2B” value [2] was “strong binding” and the “binding to PBP1A/B” value [3] was “strong binding”. It also gave an MIC ([4]; Staphylococcus aureus, S. aureus ATCC 25923 (MSSA), median (n = 3), read-out: MIC) of 16 µg/mL, an MIC ([5]; Staphylococcus saprophyticus, ATCC15305, S. saprophyticus ATCC 15305, median (n = 3), read-out: MIC) of 32 µg/mL and an MIC ([6]; Enterococcus casseliflavus, ATCC700327, E. casseliflavus ATCC 700327, median (n = 3), read-out: MIC) of over 2050 µg/mL. It also gave an MIC ([7]; Staphylococcus aureus, S. aureus NCTC 10442 (MRSA), median (n = 3), read-out: MIC) of 16 µg/mL, an MIC ([8]; Escherichia coli, E. coli Tü20‐025, median (n = 3), read-out: MIC) of 2 µg/mL and an MIC ([9]; Enterococcus faecalis, ATCC29212, E. faecalis ATCC 29212, median (n = 3), read-out: MIC) of 4 µg/mL. The MIC ([10]; Klebsiella pneumoniae) was 0.125 µg/mL and the MIC ([11]; Bacillus subtilis, DSM10, B. subtilis DSM 10, median (n = 3), read-out: MIC) was 8 µg/mL.
With `CC(C)(O/N=C(\C(=O)N[C@@H]1C(=O)N2C(C(=O)[O-])=C(C[n+]3ccccc3)CS[C@H]12)c1csc(N)n1)C(=O)NCCCCCCN1C(=O)CC(SC[C@H](NC(=O)[C@H](CCCNC(=N)N)NC(=O)[C@H](CCCNC(=N)N)NC(=O)[C@H](CCCNC(=N)N)NC(=O)[C@H](CCCNC(=N)N)NC(=O)[C@H](CCCNC(=N)N)NC(=O)[C@@H](N)CCCNC(=N)N)C(N)=O)C1=O` (stereo partly shown) [CTZ-R6] the “binding to PBP4” value [1] was “decreased in comparison to CTZ”, the “binding to PBP2B” value [2] was “showed affinity” and the “binding to PBP1A/B” value [3] was “decreased in comparison to CTZ”. The MIC ([4]; ATCC 25923, 20 h) was 4 µg/mL, the MIC ([5]; ATCC 15305, 20 h) was 0.02 µg/mL and the MIC ([6]; ATCC 700327, 20 h) was 0.25 µg/mL. It also gave an MIC ([7]; NCTC 10442, 20 h) of 2 µg/mL, an MIC ([8]; Tü20‐025 (clinical isolate, 20 h)) of 0.5 µg/mL and an MIC ([9]; ATCC 29212, 20 h) of under 0.004 µg/mL. For the same molecule, the MIC ([10]; Tü20‐036 (clinical isolate, 20 h)) was 0.0625 µg/mL and the MIC ([11]; DSM 10, 20 h) was 0.008 µg/mL.
